According to US20160045531A1, “COMBINATION THERAPY FOR TREATING CANCER” (EPIZYME, INC., priority 2014, published 2016):

Columns and labels:
[1] = test system: SKM-1 (non-MLL-rearranged AML); experiment: Combination proliferation study with Compound A2 (Examples 2/3), SKM-1; format: cell-based, human; conditions: non-rearranged SKM-1 cell line
Method: The HP-D300 digital dispenser (Tecan) was used to dispense compounds in a combinatorial matrix. […] Cell viability was measured via ATP content using CellTiter-Glo® (Promega).
Viability was determined using CellTiter-Glo® (Promega).

MOLM-13 cells [2] = experiment: Flow cytometric analysis of cell cycle and Annexin V, MOLM-13; format: cell-based, human
Method: (§1) On Day 0 MOLM-13 cells are seeded at 3,000 cells/mL. On Day 7 and Day 10 MOLM-13 cells are counted and reseeded at 50,000 cells/mL. […] On Day 10 They were redosed again. On Day 14 the experiment was terminated.
To evaluate the fraction of cells in each cell cycle, flow cytometric analysis was performed. FACS analysis for detection of cell death by apoptosis, and cell cycle was performed.
Samples were analyzed using the Guava EasyCyte Plus System (Millipore). Cells for cell cycle analysis were pelleted by centrifugation at 200×g for 5 minutes at 4° C., washed twice with ice cold PBS then fixed with 70% ice cold ethanol. All samples were analyzed together at end of experiment. Following fixation cells were washed with PBS and stained with the Guava cell cycle reagent (Millipore 4500-0220) for 30 minutes. Samples were analyzed using the Guava EasyCyte Plus System (Millipore).

MOLM-13 cells [3] = experiment: CD11b and CD14 expression by flow cytometry, MOLM-13; format: cell-based, human
Method: as §1
The cells were prepared by washing twice in PBS, followed by fixation in 4% formaldehyde for ten minutes at 37° C. After fixation cells were washed and blocked with blocking buffer for 10 minutes at room temperature. Cells were then incubated in presence of anti-CD14, anti-CD11b or anti-IgG antibody for 1 hour at room temperature while rotating. Cells were washed, re-suspended in PBS and 5,000 events were analyzed using ExpressPro software on the GuavaCyte Plus System.

H3K79me2 = conditions: cited from earlier work
[4] = test system: rat xenograft model of MLL-rearranged leukemia; conditions: cited from earlier work
[5] = test system: acute leukemia lines bearing MLL translocations; conditions: sparing lines without MLL gene translocations; cited from earlier work
SKM-1 cells = experiment: Proliferation assay and calculation of synergism (Example 5), SKM-1; conditions: non-MLL-rearranged leukemia cell line SKM-1
From the text: The acute myelogenous leukemia cell line MV4-11 (MLL-AF4) (CRL-9591) was obtained from American Type Culture Collection (ATCC), Manassas, Va. and both MOLM-13 (MLL-AF9) (ACC 554) and SKM-1 (ACC 547) cells were obtained from Leibniz Institute DSMZ-German Collection of Microorganisms and Cell Cultures, Braunschweig, Germany. MV4-11 cells were maintained in IMDM supplemented with 10% fetal bovine serum. MOLM-13 and SKM-1 cells were maintained in Roswell Park Memorial Institute medium (RPMI) supplemented with 10% fetal bovine serum. They were cultured in flasks or plates in a humidified 5% CO2 atmosphere.
Proliferation studies were performed using MOLM-13, MV4-11 and SKM-1 cell lines in vitro to evaluate the cancer cell killing effect of a combination of two agents together on cell growth. Initial proliferation studies were performed to determine the IC50 values of a given compound in each cell line. The cell counts were measured by ATP quantitation using the Promega Cell Titer Glo kit and luminescence values correspond to the amount of ATP in a given well.
These studies were performed to evaluate both the combinatorial effect of compounds on cell killing and the durability of the effect by washing out one of the agents.
Compounds evaluated for synergy in the co-treatment phase were tested in a range which was bracketed around the IC50's. The compounds were plated to a 96 well plate in a matrix format which includes increasing concentrations of each drug in the combination in a constant ratio, in addition to the effect of each compound alone in the study. […] Maximum and minimum inhibition (DMSO alone) controls were used in each plate to calculate fraction affected (Fa) of a test well. DMSO concentration was kept at 0.1% v/v. The drug combination analysis was performed utilizing the Chou-Talalay method. Synergy was determined using the software package Calcusyn by Biosoft. The combination index (CI) is the term used to describe the level of synergy or antagonism in a given test system. A combination index less than one indicates synergy, and a CI greater than one indicates antagonism.
The drug combination analysis was performed using the Chou-Talalay method. Graphs representing values of combination index (CI) versus Fractional effect (Fa) known as Fa-CI plots were generated and synergy was evaluated. Drug synergy was statistically defined by CI values less than 1, antagonism by CI>1 and additive effect by CI equal to 1.

Question: With CC(C)N(C[C@H]1O[C@@H](n2cnc3c(N)ncnc32)[C@H](O)[C@@H]1O)[C@H]1C[C@@H](CCc2nc3cc(C(C)(C)C)ccc3[nH]2)C1 [Compound A2, (2R,3R,4S,5R)-2-(6-amino-9H-purin-9-yl)-5-((((1r,3S)-3-(2-(5-(tert-butyl)-1H-benzo[d]imidazol-2-yl)ethyl)cyclobutyl) (isopropyl)amino)methyl) tetrahydrofuran-3,4-diol] as the molecule, how does the “Single agent antiproliferative effect in SKM-1” value [1] read?
Answer: no effect alone

Question: What about the EC50 (MOLM-13 cells [2]; Homo sapiens, 168 h, MOLM-13, single agent, 7 days, Annexin-V staining, read-out: Midpoint value (EC50) of decrease in total content of viable cells) of the same molecule?
Answer: 0.364 ± 0.018 µM

Question: And the “Apoptotic cells (Annexin-V staining), single agent” value (MOLM-13 cells [2]; MOLM-13, after 7 days of treatment)?
Answer: concentration-dependent increase in apoptotic cells

Question: What about the “Apoptosis induction over 14 day course, single agent” value (MOLM-13 cells [2]; MOLM-13, 156 nM Compound A2 or 63 nM Ara-C) of the same molecule?
Answer: much more robust induction of apoptosis

Question: What about the “Sub-G1 cell population, single agent” value (MOLM-13 cells [2]; MOLM-13, 14 day treatment, 156 nM Compound A2 or 63 nM Ara-C) of the same molecule?
Answer: moderate, time-dependent increase in sub-G1 population

Question: What about the “Differentiation markers CD11b and CD14, single agent” value (MOLM-13 cells [3]) of the same molecule?
Answer: time and concentration dependent up-regulation

Question: What about the “Inhibition of intracellular DOT1L activity (H3K79 methylation)” value (H3K79me2; across a spectrum of AML cell lines) of the same molecule?
Answer: concentration-dependent inhibition of H3K79 methylation

Question: And the “Time for H3K79me2 to return to pretreatment levels after the latency period” value (H3K79me2; after the 3-day latency period)?
Answer: 4 days

Question: What about the “Period without recovery of H3K79 methylation after wash out” value (H3K79me2; after wash out of Compound A2) of the same molecule?
Answer: 3 days

Question: What about the “Depletion of cellular levels of H3K79me2” value (H3K79me2; four days of treatment) of the same molecule?
Answer: > 80%

Question: What about the “Tumor response in xenograft” value [4] of the same molecule?
Answer: sustained tumor regressions

Question: And the “Cell killing in vitro” value [5]?
Answer: promoted cell killing

Question: And the “Single agent antiproliferative activity in SKM-1” value (SKM-1 cells)?
Answer: no single agent activity
